Patent US10174065B2, “Antidiabetic enolic glucoside of phenylpyruvic acid” (ZADEC APS, priority 2010, dated 2019)

Tests used:
[1] = test system: Chang cells; assay: 2-deoxy-[3H]-D-glucose uptake assay; format: cell-based; settings: Chang cell cultures, 3 hrs exposure
Procedure: The glucose uptake of RX-1 and selected analogues after administration of test compounds to Chang cell cultures were determined in an operating protocol for the 2-deoxy-[^3H]-D-glucose. The protocol, which is described in more detail below, has been designed to test for the RX-1 (and RX-1 analogues) mediated glucose uptake. In Table the EC50 values for the uptake for RX-1 and representative analogues is shown.
Stock solutions of the RX-1 analogues supplied in cryo vials (DrugMode) was prepared by diluting the compound with […] sterile tissue culture grade water. This will yield a 5 mM stock solution. If the analogue […] an additional 50 μl methanol will be added (this will be recorded clearly on the log sheet). This will yield a 4 mM stock solution. Stock solutions will be kept on ice at all times and analogues will be stored in 20 μl aliquots at −80 C for subsequent use. Tubes that have been thawed will be clearly marked on the label.
RX-1 (10 μM) Positive Control Solution • To prepare a 10 μM RX-1 solution as positive control. Add 30 μl to 2970 μl modified DMEM media supplemented with 8 mM glucose.
RX-1 Analogue (31.6 μM) Test Solutions • To prepare a 31.6 μM RX-1 analogue test solution. Add 19 μl of the 5 mM to 2981 μl modified DMEM media supplemented with 8 mM glucose. To prepare a 31.6 μM RX-1 analogue test solution from a 4 mM stock solution, add 24 μl to 2976 μl modified DMEM media supplemented with 8 mM glucose.
Cell Seeding in 24-Well Plates • Chang cells are cultured according to procedures described in MRC cell culture SOPs: TC-B2a Thawing of cells and TC-B1a Cell line maintenance—general principles. Make sure cells are in the log phase (i.e. <70% confluence) and less than 20 passages. • Harvest cells using 0.25% (w/v) Trypsin/0.53 mM EDTA solution. • Count cells and resuspend to 30 000 cells/ml (Chang cell seeding density for 24-well plate=30 000 cells/ml) in EMEM (with pyruvate and NEAA, but without L-glutamate (Lonza, USA) containing 10% FBS (Gibco, UK) and pipette 1 ml/well cell suspension to a 24-well plate corresponding to 30 000 cells/well.
• after 3 days of cell growth, aspirate medium • wash cells once with pre-warmed DPBS at 37° C. • add 500 μl of pre-warmed 37° C. DMEM/0.1% BSA (without phenol red, glucose and pyruvate) to serum starve cells to remove residual glucose and FBS • incubate at 37° C. in humidified air and 5% CO2 for 30 min • aspirate DMEM/0.1% BSA (without phenol red, glucose and pyruvate) • Prepare test dilutions as specified in the plate layout (see below) • add 500 μl pre-warmed 37° C. of test dilution per well according to plate layout • incubate at 37° C. in humidified air and 5% CO2 for 3 hrs • remove test medium and wash cells once with DPBS (37° C.) • add 250 μl of test medium containing 0.5 μCi/ml ^3H-2-DOG to each well use (0.5 μl ^3H to 1 ml medium) • Incubate cells at 37° C. in humidified air and 5% CO2 for 15 min • Aspirate medium • To stop the reaction, wash cells twice with ice-cold DPBS • Aspirate DPBS and ensure that wells are as dry as possible • Lyse cells by adding 1 ml of 0.3N NaOH/1% SDS and incubate at 37° C. for at least 45 min • Mix cell lysate thoroughly before subsequent use in LSC and Bradford protein determination

[2] = test system: 3T3-L1 adipocytes; assay: Glucose uptake in transformed 3T3-L1 adipocytes (colourometric glucose oxidase method); format: cell-based; settings: for glucose uptake over a 3 hour culture period: 3T3-L1 adipose cells; for Glucose conc.: glucose remaining in the media after 3 hour exposure to the cells; for Glucose conc. / Glucose Uptake: media containing 8 mM glucose; for Glucose Uptake: glucose uptake from the media after 3 hour exposure; for % uptake: relative to DMSO vehicle = 100.00, 3 hour glucose uptake
Procedure: 3T3-L1 cells were transformed in culture using modified DMEM differentiation media supplemented with insulin, dexametasone and isobutylmethylxanthine and cultured for 3 days. The transformed 3T3-L1 adipocytes were then cultured for a further 5 days in modified DMEM supplemented with 10% FCS before being exposed to insulin, metformin and compounds of the present invention (see Table 1). Glucose uptake over a three (3) hour period was determined after the 5 days of treatment using a colourometric glucose oxidase method (Biovision Inc, USA).
The glucose concentration column represents the glucose concentration remaining in the media following three (3) hour exposure to the cells. The glucose uptake column represents glucose uptake from the media after a 3 hour exposure. SD represents the standard deviation. The percentage increases calculated from the relevant solvent vehicle and the P=values are reflected in the last two columns respectively.

| EC50 [1] [µM] | Compound | glucose uptake over a 3 hour culture period [2] | Glucose conc. [2] [nM/ul] | Glucose Uptake [2] [nM/ul] | % uptake [2] [%] |
| --- | --- | --- | --- | --- | --- |
| 80.8 | O=C(O)/C(=C/c1ccccc1F)O[C@H]1O[C@@H](CO)[C@H](O)[C@@H](O)[C@@H]1O [RX-4, (Z)-3-(2-Fluorophenyl)-2-(((2R,3S,4R,5R,6S)-3,4,5-trihydroxy-6-(hydroxymethyl)tetrahydro-2H-pyran-2-yl)oxy)acrylic acid] |  |  |  |  |
| 105 | O=C(O)/C(=C/c1cccc(C(F)(F)F)c1)O[C@H]1O[C@@H](CO)[C@@H](O)[C@@H](O)[C@@H]1O [RX-10, (Z)-3-(3-(Trifluoromethyl)phenyl)-2-(((2R,3S,4R,5S,6S)-3,4,5-trihydroxy-6-(hydroxymethyl)tetrahydro-2H-pyran-2-yl)oxy)acrylic acid] |  |  |  |  |
| 5.7 | O=C(O)/C(=C/c1cccc(C(F)(F)F)c1)O[C@H]1O[C@@H](CO)[C@H](O)[C@@H](O)[C@@H]1O [RX-20, (Z)-3-(3-(Trifluoromethyl)phenyl)-2-(((2R,3S,4R,5R,6S)-3,4,5-trihydroxy-6-(hydroxymethyl)tetrahydro-2H-pyran-2-yl)oxy)acrylic acid] |  |  |  |  |
| 286 | O=C(O)/C(=C/c1ccccc1Cl)O[C@H]1O[C@@H](CO)[C@@H](O)[C@@H](O)[C@@H]1O [RX-21, (Z)-3-(2-Chlorophenyl)-2-(((2R,3S,4R,5S,6S)-3,4,5-tri hydroxy-6-(hydroxymethyl)tetrahydro-2H-pyran-2-yl)oxy)acrylic acid] |  |  |  |  |
| 6.99 | O=C(O)/C(=C/c1c(F)cccc1Cl)O[C@H]1O[C@@H](CO)[C@@H](O)[C@@H](O)[C@@H]1O [RX-16, (Z)-3-(2-Chloro-6-fluorophenyl)-2-(((2R,3S,4R,5S,6S)-3,4,5-trihydroxy-6-(hydroxymethyl)tetrahydro-2H-pyran-2-yl)oxy)acrylic acid] |  |  |  |  |
| 9.35 | O=C(O)/C(=C/c1ccccc1[N+](=O)[O-])O[C@H]1O[C@@H](CO)[C@H](O)[C@@H](O)[C@@H]1O [RX-2, (Z)-3-(2-Nitrophenyl)-2-(((2R,3S,4R,5R,6S)-3,4,5-trihydroxy-6-(hydroxymethyl)tetrahydro-2H-pyran-2-yl)oxy)acrylic acid] |  |  |  |  |
| 9.5 | Cc1cccc(/C=C(\O[C@H]2O[C@@H](CO)[C@@H](O)[C@@H](O)[C@@H]2O)C(=O)O)c1 [RX-18, (Z)-3-(m-Tolyl)-2-(((2R,3S,4R,5S,6S)-3,4,5-trihydroxy-6-(hydroxymethyl)tetrahydro-2H-pyran-2-yl)oxy)acrylic acid] |  |  |  |  |
| 181 | Cc1cccc(/C=C(\O[C@H]2O[C@@H](CO)[C@H](O)[C@@H](O)[C@@H]2O)C(=O)O)c1 [RX-19, (Z)-3-(m-Tolyl)-2-(((2R,3S,4R,5R,6S)-3,4,5-trihydroxy-6-(hydroxymethyl)tetrahydro-2H-pyran-2-yl)oxy)acrylic acid] |  |  |  |  |
| 114 | O=C(O)/C(=C/c1cccc(F)c1)O[C@H]1O[C@@H](CO)[C@@H](O)[C@@H](O)[C@@H]1O [RX-5, (Z)-3-(3-Fluorophenyl)-2-(((2R,3S,4R,5S,6S)-3,4,5-trihydroxy-6-(hydroxymethyl)tetrahydro-2H-pyran-2-yl)oxy)acrylic acid] |  |  |  |  |

Second part, the compound before the results:

| Compound | EC50 [1] [µM] | glucose uptake over a 3 hour culture period [2] | Glucose conc. [2] [nM/ul] | Glucose Uptake [2] [nM/ul] | % uptake [2] [%] |
| --- | --- | --- | --- | --- | --- |
| COC(=O)/C(=C/c1ccccc1)O[C@@H]1O[C@H](COC(C)=O)[C@@H](OC(C)=O)[C@H](OC(C)=O)[C@H]1OC(C)=O [RX-1 triacetate, (2R,3R,4S,5R,6S)-2-(Acetoxymethyl)-6-((Z)-3-methoxy-3-oxo-1-phenylprop-1-en-2-yloxy)tetrahydro-2H-pyran-3,4,5-triyl triacetate] |  | significantly increased | 2.92 | 3.05 | 130.78 |
| Insulin |  |  | 2.86 | 3.13 | 134.03 |
| COC(=O)/C(=C/c1ccccc1)O[C@@H]1O[C@H](CO)[C@@H](O)[C@H](O)[C@H]1O [RX-1 acrylate, (Z)-Methyl 3-phenyl-2-((2S,3R,4S,5S,6R)-3,4,5-trihydroxy-6-(hydroxymethyl)tetra hydro-2H-pyran-2-yloxy)acrylate] |  | significantly increased | 2.82 | 3.16 | 135.53 |
| CN(C)C(=N)N=C(N)N [Metformin, reference compound] |  |  | 3.27 | 2.73 | 117.14 |
